In the supplement of paper PMC6411743:

Compound: Nc1ncnc2c1ncn2[C@@H]1O[C@H](COP(=O)(O)OP(=O)(O)OP(=O)(O)O)[C@@H](O)[C@H]1O [adenosine triphosphate]
Test: pEC50 of ATP-induced change in protein thermal stability (2D-TPP)
In short: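 Each of three independent experiments used Jurkat crude lysate given five concentrations including vehicle (10 min, room temperature), followed by 3 min at one of 12 temperatures from 42 to 63.9 °C and NP40 with benzonase (60 min, 4 °C). TMT LC-MS/MS quantified soluble protein after ultracentrifugation, expressed as fold changes against vehicle at each temperature with median normalisation. For pEC50, dose-response curves were fitted per replicate over adjacent temperature pairs, and hits were called through permutation-based false discovery rate control.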
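Note: lysate dosed with Na-ATP at 0 0.005 0.05 0.5 and 2 mM.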

Chain of UniProt Q96PZ0 (Q96PZ0 whole entry): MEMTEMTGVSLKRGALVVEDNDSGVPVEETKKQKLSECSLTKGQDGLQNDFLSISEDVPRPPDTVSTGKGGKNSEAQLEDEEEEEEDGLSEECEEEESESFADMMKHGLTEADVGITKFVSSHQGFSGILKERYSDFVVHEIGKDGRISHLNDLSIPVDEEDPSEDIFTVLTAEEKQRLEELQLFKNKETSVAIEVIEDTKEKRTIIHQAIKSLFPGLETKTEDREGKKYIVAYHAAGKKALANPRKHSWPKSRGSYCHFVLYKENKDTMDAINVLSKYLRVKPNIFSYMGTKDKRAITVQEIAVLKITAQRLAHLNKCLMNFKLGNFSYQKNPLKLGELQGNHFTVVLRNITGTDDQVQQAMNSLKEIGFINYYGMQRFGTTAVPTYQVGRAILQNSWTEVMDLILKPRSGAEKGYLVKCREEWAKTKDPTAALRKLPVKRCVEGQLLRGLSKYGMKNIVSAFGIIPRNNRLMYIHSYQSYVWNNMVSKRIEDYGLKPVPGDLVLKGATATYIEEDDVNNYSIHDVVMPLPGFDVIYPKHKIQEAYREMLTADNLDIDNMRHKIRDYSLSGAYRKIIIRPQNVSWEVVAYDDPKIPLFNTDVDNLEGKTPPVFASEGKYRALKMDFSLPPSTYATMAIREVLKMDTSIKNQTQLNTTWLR
Chain of UniProt O96017 (O96017 whole entry): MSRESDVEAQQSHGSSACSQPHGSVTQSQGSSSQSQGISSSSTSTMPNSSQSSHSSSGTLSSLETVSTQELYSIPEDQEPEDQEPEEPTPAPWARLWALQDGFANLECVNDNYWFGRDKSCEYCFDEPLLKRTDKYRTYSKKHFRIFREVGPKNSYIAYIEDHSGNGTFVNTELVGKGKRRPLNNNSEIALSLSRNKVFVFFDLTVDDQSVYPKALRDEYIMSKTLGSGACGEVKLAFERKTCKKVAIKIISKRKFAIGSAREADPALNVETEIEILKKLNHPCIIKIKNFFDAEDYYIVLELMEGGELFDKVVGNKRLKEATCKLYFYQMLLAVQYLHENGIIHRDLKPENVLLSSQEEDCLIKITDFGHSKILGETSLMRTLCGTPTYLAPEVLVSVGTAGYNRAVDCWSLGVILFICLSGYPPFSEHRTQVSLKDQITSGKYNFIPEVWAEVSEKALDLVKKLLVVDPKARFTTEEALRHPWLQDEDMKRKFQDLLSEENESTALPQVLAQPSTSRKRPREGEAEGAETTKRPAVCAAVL
Chain of UniProt P20839 (P20839 whole entry, looked up): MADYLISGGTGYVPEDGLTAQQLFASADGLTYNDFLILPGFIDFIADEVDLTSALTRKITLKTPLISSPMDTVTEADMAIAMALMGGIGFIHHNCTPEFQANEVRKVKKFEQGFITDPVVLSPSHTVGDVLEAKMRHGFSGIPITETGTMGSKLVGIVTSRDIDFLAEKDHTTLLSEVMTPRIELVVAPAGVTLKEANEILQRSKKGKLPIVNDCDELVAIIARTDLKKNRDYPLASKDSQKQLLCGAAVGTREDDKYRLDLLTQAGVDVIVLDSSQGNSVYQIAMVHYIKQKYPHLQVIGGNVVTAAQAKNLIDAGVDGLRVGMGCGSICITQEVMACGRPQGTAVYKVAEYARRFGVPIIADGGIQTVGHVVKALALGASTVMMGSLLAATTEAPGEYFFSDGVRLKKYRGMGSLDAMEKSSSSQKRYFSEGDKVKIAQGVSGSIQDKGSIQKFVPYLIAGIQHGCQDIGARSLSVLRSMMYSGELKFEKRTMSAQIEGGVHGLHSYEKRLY
Chain of UniProt Q96P70 (Q96P70 whole entry): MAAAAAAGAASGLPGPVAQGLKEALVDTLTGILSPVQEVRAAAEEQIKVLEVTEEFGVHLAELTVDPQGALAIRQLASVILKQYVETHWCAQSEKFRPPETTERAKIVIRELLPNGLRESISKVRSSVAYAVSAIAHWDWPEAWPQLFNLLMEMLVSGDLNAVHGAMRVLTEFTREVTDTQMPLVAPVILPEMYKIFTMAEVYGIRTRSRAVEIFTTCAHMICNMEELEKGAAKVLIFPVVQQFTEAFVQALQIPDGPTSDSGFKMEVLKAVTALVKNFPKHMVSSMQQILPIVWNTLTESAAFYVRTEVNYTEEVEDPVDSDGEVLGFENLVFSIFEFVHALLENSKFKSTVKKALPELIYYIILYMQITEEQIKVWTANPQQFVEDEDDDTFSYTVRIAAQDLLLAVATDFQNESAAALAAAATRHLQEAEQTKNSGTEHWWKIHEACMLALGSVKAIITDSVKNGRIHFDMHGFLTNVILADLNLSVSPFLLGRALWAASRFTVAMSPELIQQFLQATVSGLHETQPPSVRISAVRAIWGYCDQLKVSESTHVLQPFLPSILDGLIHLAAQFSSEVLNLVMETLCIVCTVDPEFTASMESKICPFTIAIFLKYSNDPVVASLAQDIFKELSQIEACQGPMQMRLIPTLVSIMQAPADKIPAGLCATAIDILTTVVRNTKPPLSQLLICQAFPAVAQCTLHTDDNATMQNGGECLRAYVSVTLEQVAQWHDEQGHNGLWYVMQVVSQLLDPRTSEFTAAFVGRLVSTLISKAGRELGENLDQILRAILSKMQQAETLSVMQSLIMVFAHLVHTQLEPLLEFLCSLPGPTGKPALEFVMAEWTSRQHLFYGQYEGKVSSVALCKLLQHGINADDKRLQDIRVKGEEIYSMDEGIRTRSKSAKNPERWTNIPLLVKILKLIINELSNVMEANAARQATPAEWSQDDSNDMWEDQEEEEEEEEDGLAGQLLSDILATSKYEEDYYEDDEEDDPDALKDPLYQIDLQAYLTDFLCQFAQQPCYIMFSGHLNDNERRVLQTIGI
Chain of UniProt O60610 (O60610 whole entry): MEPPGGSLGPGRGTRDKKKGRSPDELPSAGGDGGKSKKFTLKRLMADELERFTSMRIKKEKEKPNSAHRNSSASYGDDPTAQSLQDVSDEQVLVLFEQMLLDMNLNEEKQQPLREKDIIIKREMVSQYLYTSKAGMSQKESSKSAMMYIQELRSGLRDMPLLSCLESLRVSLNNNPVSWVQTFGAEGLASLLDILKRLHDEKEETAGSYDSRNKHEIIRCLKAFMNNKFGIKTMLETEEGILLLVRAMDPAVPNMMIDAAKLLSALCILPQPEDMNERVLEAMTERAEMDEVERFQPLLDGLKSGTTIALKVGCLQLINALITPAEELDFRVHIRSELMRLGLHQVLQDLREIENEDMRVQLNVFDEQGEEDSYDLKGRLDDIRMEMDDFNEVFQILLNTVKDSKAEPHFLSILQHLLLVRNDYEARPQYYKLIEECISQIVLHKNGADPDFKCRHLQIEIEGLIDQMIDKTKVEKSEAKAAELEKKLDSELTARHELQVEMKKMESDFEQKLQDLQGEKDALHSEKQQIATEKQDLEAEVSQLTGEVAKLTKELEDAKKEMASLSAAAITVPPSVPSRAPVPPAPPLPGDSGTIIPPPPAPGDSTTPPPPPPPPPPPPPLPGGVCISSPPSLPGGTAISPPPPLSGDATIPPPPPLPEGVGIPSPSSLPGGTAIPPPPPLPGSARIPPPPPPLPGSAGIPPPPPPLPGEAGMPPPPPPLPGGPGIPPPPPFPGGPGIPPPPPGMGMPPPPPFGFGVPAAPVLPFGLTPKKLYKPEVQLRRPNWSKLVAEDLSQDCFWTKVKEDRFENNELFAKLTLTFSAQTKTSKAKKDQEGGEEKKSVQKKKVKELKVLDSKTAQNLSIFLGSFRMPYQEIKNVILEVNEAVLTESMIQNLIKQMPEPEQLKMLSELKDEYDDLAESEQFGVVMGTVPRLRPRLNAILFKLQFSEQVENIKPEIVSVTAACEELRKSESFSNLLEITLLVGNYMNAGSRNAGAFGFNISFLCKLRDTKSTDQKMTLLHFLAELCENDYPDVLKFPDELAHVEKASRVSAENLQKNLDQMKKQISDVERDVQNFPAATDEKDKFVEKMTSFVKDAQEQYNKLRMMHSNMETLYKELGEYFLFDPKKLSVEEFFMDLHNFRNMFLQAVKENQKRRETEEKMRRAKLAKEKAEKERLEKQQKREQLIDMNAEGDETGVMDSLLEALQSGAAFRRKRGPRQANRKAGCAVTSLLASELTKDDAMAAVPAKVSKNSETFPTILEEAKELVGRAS
Chain of UniProt P11310 (P11310 whole entry): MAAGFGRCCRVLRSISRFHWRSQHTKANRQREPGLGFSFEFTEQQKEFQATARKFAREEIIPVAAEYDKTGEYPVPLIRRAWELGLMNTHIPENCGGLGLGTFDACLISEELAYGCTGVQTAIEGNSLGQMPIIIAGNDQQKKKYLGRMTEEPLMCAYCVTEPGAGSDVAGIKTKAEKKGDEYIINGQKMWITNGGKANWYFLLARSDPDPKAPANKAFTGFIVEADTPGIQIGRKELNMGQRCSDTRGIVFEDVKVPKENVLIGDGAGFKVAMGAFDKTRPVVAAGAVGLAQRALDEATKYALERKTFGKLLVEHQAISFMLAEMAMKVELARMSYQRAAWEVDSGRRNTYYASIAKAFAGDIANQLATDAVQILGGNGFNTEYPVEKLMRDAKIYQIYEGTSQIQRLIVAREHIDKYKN
Chain of UniProt P30043 (P30043 whole entry): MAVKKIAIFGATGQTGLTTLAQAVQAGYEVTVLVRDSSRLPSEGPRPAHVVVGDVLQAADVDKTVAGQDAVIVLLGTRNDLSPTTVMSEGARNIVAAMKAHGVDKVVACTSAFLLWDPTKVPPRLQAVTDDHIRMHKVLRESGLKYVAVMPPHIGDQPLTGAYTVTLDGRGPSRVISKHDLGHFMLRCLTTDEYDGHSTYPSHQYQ
Chain of UniProt Q9NQ88 (Q9NQ88 whole entry): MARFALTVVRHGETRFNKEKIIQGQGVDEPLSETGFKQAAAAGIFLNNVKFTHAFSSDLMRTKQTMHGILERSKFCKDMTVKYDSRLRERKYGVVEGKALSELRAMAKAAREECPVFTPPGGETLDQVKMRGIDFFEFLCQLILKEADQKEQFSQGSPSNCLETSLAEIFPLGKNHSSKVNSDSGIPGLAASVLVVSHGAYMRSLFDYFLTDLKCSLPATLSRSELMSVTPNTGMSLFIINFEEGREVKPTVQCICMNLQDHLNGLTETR

Target | pEC50
MEPCE (effect direction: stabilized) (UniProt Q7L2J0) | 2.82
NFKB1 (effect direction: stabilized) (UniProt P19838) | 3.66
CNOT10 (effect direction: stabilized) (UniProt Q9H9A5) | 3.17
NOP2 (effect direction: destabilized) (UniProt P46087) | 2.94
UniProt P24539 (effect direction: stabilized) | 4.02
ACLY (effect direction: stabilized) (UniProt P53396) | 3.16
UniProt Q8N1G2 (effect direction: stabilized) | 3.14
UniProt P0C0S5 (effect direction: stabilized) | 2.96
FAHD2A (effect direction: destabilized) (UniProt Q96GK7) | < 2.7
RNF20 (effect direction: stabilized) (UniProt Q5VTR2) | < 2.7
POLG2 (effect direction: destabilized) (UniProt Q9UHN1) | 3.26
ACADM (effect direction: stabilized) (UniProt P11310) | < 2.7
GLRX3 (effect direction: stabilized) (UniProt O76003) | < 2.7
ATP2A3 (effect direction: stabilized) (UniProt Q93084) | 3.22
POLR2C (effect direction: destabilized) (UniProt P19387) | 3.72
KIF15 (effect direction: stabilized) (UniProt Q9NS87) | 3.11
IMPDH1 (effect direction: stabilized) (UniProt P20839) | 3.32
UniProt Q9Y530 (effect direction: stabilized) | 2.97
AARS2 (effect direction: stabilized) (UniProt Q5JTZ9) | 3.29
ETFA (effect direction: stabilized) (UniProt P13804) | < 2.7
THUMPD3 (effect direction: stabilized) (UniProt Q9BV44) | 3.1
ENO2 (effect direction: destabilized) (UniProt P09104) | 2.99
UniProt Q13188 (effect direction: stabilized) | 3.25
RPS3A (effect direction: destabilized) (UniProt P61247) | 3.86

Target | pEC50
ZCCHC9 (effect direction: destabilized) (UniProt Q8N567) | < 2.7
TSTA3 (effect direction: stabilized) (UniProt Q13630) | 2.73
UniProt P62841 (effect direction: destabilized) | 2.99
MTHFD1L (effect direction: stabilized) (UniProt Q6UB35) | 3.33
NAT14 (effect direction: stabilized) (UniProt Q8WUY8) | 3.34
PAPOLA (effect direction: stabilized) (UniProt P51003) | 2.95
KLHDC4 (effect direction: stabilized) (UniProt Q8TBB5) | < 2.7
RABGAP1 (effect direction: stabilized) (UniProt Q9Y3P9) | < 2.7
IPO9 (effect direction: destabilized) (UniProt Q96P70) | 3.67
CAP1 (effect direction: stabilized) (UniProt Q01518) | 5
BNIP2 (effect direction: stabilized) (UniProt Q12982) | < 2.7
UniProt P68431 (effect direction: stabilized) | 2.79
YARS2 (effect direction: stabilized) (UniProt Q9Y2Z4) | 3.97
EIF3K (effect direction: stabilized) (UniProt Q9UBQ5) | < 2.7
UniProt P28482 (effect direction: stabilized) | 3.16
PC (effect direction: stabilized) (UniProt P11498) | 3.45
PSMD4 (effect direction: stabilized) (UniProt P55036) | 3.77
CLCN3 (effect direction: stabilized) (UniProt P51790) | 3.23
ZRANB2 (effect direction: stabilized) (UniProt O95218) | 2.84
PFN1 (effect direction: stabilized) (UniProt P07737) | 3.57
KIF21B (effect direction: stabilized) (UniProt O75037) | 3.38
TLN1 (effect direction: stabilized) (UniProt Q9Y490) | < 2.7
ST13 (effect direction: stabilized) (UniProt P50502) | 3.1
UniProt P45984 (effect direction: stabilized) | 3.14

Target | pEC50
UniProt O60610 (effect direction: stabilized) | < 2.7
GSTO1 (effect direction: stabilized) (UniProt P78417) | < 2.7
SNRNP27 (effect direction: stabilized) (UniProt Q8WVK2) | 3.64
PUS7 (effect direction: stabilized) (UniProt Q96PZ0) | < 2.7
UniProt P26639 (effect direction: stabilized) | < 2.7
GGPS1 (effect direction: destabilized) (UniProt O95749) | 2.94
CAMKK2 (effect direction: stabilized) (UniProt Q96RR4) | 3.63
SPATA5 (effect direction: stabilized) (UniProt Q8NB90) | 2.96
NSDHL (effect direction: stabilized) (UniProt Q15738) | < 2.7
PPP2R1A (effect direction: stabilized) (UniProt P30153) | < 2.7
FAF1 (effect direction: stabilized) (UniProt Q9UNN5) | 2.79
GNE (effect direction: stabilized) (UniProt Q9Y223) | 3.16
BLVRB (effect direction: stabilized) (UniProt P30043) | 2.87
CSE1L (effect direction: stabilized) (UniProt P55060) | 3.69
UniProt Q5JUR7 (effect direction: stabilized) | 3.36
SPTBN1 (effect direction: stabilized) (UniProt Q01082) | < 2.7
UniProt P62847 (effect direction: destabilized) | 4.16
DERA (effect direction: stabilized) (UniProt Q9Y315) | 3.16
HNRNPF (effect direction: stabilized) (UniProt P52597) | < 2.7
GPS1 (effect direction: stabilized) (UniProt Q13098) | < 2.7
UniProt O96017 (effect direction: stabilized) | 3.33
PCID2 (effect direction: stabilized) (UniProt Q5JVF3) | 3.02
ZCCHC8 (effect direction: stabilized) (UniProt Q6NZY4) | < 2.7
HSPA4 (effect direction: stabilized) (UniProt P34932) | < 2.7

Target | pEC50
DDX20 (effect direction: stabilized) (UniProt Q9UHI6) | 3.48
NCAPH (effect direction: stabilized) (UniProt Q15003) | 3.5
RRP9 (effect direction: destabilized) (UniProt O43818) | 2.98
ALDH9A1 (effect direction: stabilized) (UniProt P49189) | 2.9
UniProt P06493 (effect direction: stabilized) | 2.93
UniProt Q9UPN7 (effect direction: stabilized) | 2.97
A0AVT1 (effect direction: stabilized) | 4.35
UniProt Q9NQ88 (effect direction: stabilized) | 3.46
UniProt Q9UPN6 (effect direction: stabilized) | 3.96
CEBPZ (effect direction: destabilized) (UniProt Q03701) | 3.06
TSEN2 (effect direction: stabilized) (UniProt Q8NCE0) | 3.12
SRRM2 (effect direction: stabilized) (UniProt Q9UQ35) | < 2.7
RPS3 (effect direction: destabilized) (UniProt P23396) | < 2.7
IDH3A (effect direction: stabilized) (UniProt P50213) | < 2.7
NCL (effect direction: stabilized) (UniProt P19338) | < 2.7
ANP32E (effect direction: stabilized) (UniProt Q9BTT0) | < 2.7
CHD1L (effect direction: stabilized) (UniProt Q86WJ1) | 3.74
PPA1 (effect direction: destabilized) (UniProt Q15181) | 2.85
PLCG1 (effect direction: stabilized) (UniProt P19174) | 2.94
PSMD1 (effect direction: stabilized) (UniProt Q99460) | 4.35
NARS2 (effect direction: stabilized) (UniProt Q96I59) | 4.1
